The numbers were not newly measured in patent publication US11351152B2, “Method and composition for treating seizure disorders” (India Globalization Capital, Inc., priority 2016, dated 2022), which cites them from elsewhere.

The test system of one data set is patients. Particulars: 200-300 mg of cannabidiol in combination with regular medication.
The subject of another data set is epileptic patients. The settings on record: 200-300 mg of cannabidiol per day in combination with standard antiepileptic drugs, 12 epileptic patients.
The next data set has as its system single patient. Particulars: 900-1200 mg of cannabidiol a day for 10 months.

With `C=C(C)[C@@H]1CCC(C)=C[C@H]1c1c(O)cc(CCCCC)cc1O` [cannabidiol], in the data set with patients, the improvement versus placebo entry is reported as “showed improvement over those that received a placebo” and the unwanted side effect entry is given as “Mild sedation”. Further, the seizure frequency entry in the data set on epileptic patients is reported as “no significant improvement in seizure frequency”. Besides, the frequency of seizures result in the data set with single patient was “markedly reduced the frequency of seizures”.
